Laboratory results from ChEMBL document CHEMBL1138526, “Design, synthesis, and biological activity of boronic acid-based histone deacetylase inhibitors” (J Med Chem, 2009).

target: Histone deacetylase (Homo sapiens) (UniProt Q13547+O15379+Q9UBN7+Q92769+Q9UQL6+Q8WUI4+Q9BY41+Q96DB2+P56524+Q9UKV0+Q969S8); experiment: Inhibition of HDAC in human HeLa cell nuclear extracts at 100 uM by fluorimetry; format: cell-free

SMILES | inhibition
O=C(CCCCCCB(O)O)Nc1cccc(Oc2ccccc2)c1 | 1.8%
CC(C)(C)OC(=O)NC(CCCCCB(O)O)C(=O)Nc1ccc(Oc2ccccc2)cc1 (stereo unspecified) | 15%
O=C(CCCCCCB(O)O)Nc1ccccc1 | 37%
O=C(CCCCCCB(O)O)Nc1nc2ccccc2s1 | 5.1%
CC(C)(C)OC(=O)NC(CCCCCB(O)O)C(=O)Nc1ccccc1 (stereo unspecified) | 42%
CC(C)(C)OC(=O)NC(CCCCCB(O)O)C(=O)Nc1cccc(-c2ccccc2)c1 (stereo unspecified) | 85%

Second part, the molecule after the results:

inhibition | SMILES
40% | O=C(CCCCCCB(O)O)Nc1cccc(-c2ccccc2)c1
86% | CC(C)(C)OC(=O)NC(CCCCCB(O)O)C(=O)Nc1cnc2ccccc2c1 (stereo unspecified)
2.2% | O=C(CCCCCCB(O)O)Nc1ccc(Oc2ccccc2)cc1
78% | CC(C)(C)OC(=O)NC(CCCCCB(O)O)C(=O)Nc1nc2ccccc2s1 (stereo unspecified)
38% | CC(C)(C)OC(=O)NC(CCCCCB(O)O)C(=O)Nc1cccc(Oc2ccccc2)c1 (stereo unspecified)
32% | O=C(CCCCCCB(O)O)Nc1cnc2ccccc2c1

target: Histone deacetylase; experiment: Inhibition of HDAC in human HeLa cell nuclear extracts by fluorimetry; format: cell-based

SMILES | IC50
CN(C)c1ccc(C(=O)NC(CCCCCB(O)O)C(=O)Nc2cccc(-c3ccccc3)c2)cc1 (stereo unspecified) | 13 µM
O=C(CCCCCCB(O)O)Nc1cccc(Oc2ccccc2)c1 | > 100 µM
CC(C)(C)OC(=O)NC(CCCCCB(O)O)C(=O)Nc1ccc(Oc2ccccc2)cc1 (stereo unspecified) | > 100 µM
O=C(CCCCCCB(O)O)Nc1ccccc1 | > 100 µM
O=C(CCCCCCB(O)O)Nc1nc2ccccc2s1 | > 100 µM
CC(C)(C)OC(=O)NC(CCCCCB(O)O)C(=O)Nc1ccccc1 (stereo unspecified) | > 100 µM
CC(C)(C)OC(=O)NC(CCCCCB(O)O)C(=O)Nc1cccc(-c2ccccc2)c1 (stereo unspecified) | 12 µM

The next lines start with the values.

IC50 | SMILES
11 µM | O=C(NC(CCCCCB(O)O)C(=O)Nc1cccc(-c2ccccc2)c1)c1cc2ccccc2[nH]1 (stereo unspecified)
> 100 µM | O=C(CCCCCCB(O)O)Nc1cccc(-c2ccccc2)c1
16 µM | CC(C)(C)OC(=O)NC(CCCCCB(O)O)C(=O)Nc1cnc2ccccc2c1 (stereo unspecified)
> 100 µM | O=C(CCCCCCB(O)O)Nc1ccc(Oc2ccccc2)cc1
23 µM | CC(C)(C)OC(=O)NC(CCCCCB(O)O)C(=O)Nc1nc2ccccc2s1 (stereo unspecified)
> 100 µM | CC(C)(C)OC(=O)NC(CCCCCB(O)O)C(=O)Nc1cccc(Oc2ccccc2)c1 (stereo unspecified)
> 100 µM | O=C(CCCCCCB(O)O)Nc1cnc2ccccc2c1
